Key:
[1] = ELECTRON Grade 3/4 hematologic (laboratory) abnormalities; type: in vivo, human; conditions: Groups 1-6 (GT2/GT3 Tx-naive)
[2] = system: 1b con-1-based chimeric replicon containing 3a NS5B S282T; type: cell-based, hepatitis C virus; conditions: genotype 3a, S282T from corresponding wild-type
Method: (§1) (Lam et al., J. Virology (2011) 85(23): 12334-12342; Lam et al., Antimicrob. Agents Chemother. (2012) 56(6): 3359-3368.) S282T mutations in NS5B were created by site-directed mutagenesis in 1a-H77, 1b con-1, and 2a JFH1 sub-genomic replicons. 1b con-1-based chimeric replicons containing 2b, 3a, 4a, 5a, or 6a NS5B were also engineered to harbor the S282T mutation. […] Relative percentages of mutant and WT were assessed by deep sequencing.

[3] = system: 1b con-1-based chimeric replicon containing 4a NS5B S282T; type: cell-based, hepatitis C virus; conditions: genotype 4a, S282T from corresponding wild-type
Method: as §1

[4] = system: 1b con-1-based chimeric replicon containing 5a NS5B S282T; type: cell-based, hepatitis C virus; conditions: genotype 5a, S282T from corresponding wild-type
Method: as §1

[5] = system: 2a JFH1 sub-genomic replicon, NS5B S282T; type: cell-based, hepatitis C virus; conditions: genotype 2a, S282T from corresponding wild-type
Method: as §1

[6] = system: 1b con-1 sub-genomic replicon, NS5B S282T; type: cell-based, hepatitis C virus; conditions: genotype 1b, S282T from corresponding wild-type
Method: as §1

HCV NS5B S282T = assay: GS-7977 resistance in Phase 2 clinical studies, population and deep sequencing of NS5B; type: in vivo, human; conditions: one GT2b patient, relapse 4 weeks after 12 weeks of monotherapy
[7] = system: 1a-H77 sub-genomic replicon, wild-type NS5B; assay: Transient replicon assay; type: cell-based; conditions: Hepatitis C virus, read-out: EC50 WT
Method: as §1

[8] = system: 1b con-1-based chimeric replicon containing 5a NS5B, wild-type; assay: Transient replicon assay; type: cell-based; conditions: Hepatitis C virus, read-out: EC50 WT
Method: as §1

[9] = ELECTRON adverse events (Groups 1,7,8,9 N=70; Groups 2,3,4 N=30; Group 5 N=10; Group 6 N=10); type: in vivo, human; conditions: subjects with event
[10] = system: mixture of 50% S282T and 50% WT in GT2a replicons; assay: Long-term passaging study with deep sequencing; type: cell-based, hepatitis C virus; design: population mutant S282T: concentration or dose not given beside the values; conditions: over fifteen days
Description: as §1, with “In vitro studies have shown that S282T is the primary mutation selected by GS-7977 in HCV genotype 1a, 1b and 2a replicon cells. (Lam” for “(Lam”
(See also Han et al., 63rd Annual Meeting of the American Association for the Study of Liver Diseases, Poster 1078, Nov. 11, 2012.)

## CC(C)OC(=O)[C@H](C)N[P@](=O)(OC[C@H]1O[C@@H](n2ccc(=O)[nH]c2=O)[C@](C)(F)[C@@H]1O)Oc1ccccc1 [GS-7977, (S)-isopropyl 2-(((S)-(((2R,3R,4R,5R)-5-(2,4-dioxo-3,4-dihydropyrimidin-1(2H)-yl)-4-fluoro-3-hydroxy-4-methyltetrahydrofuran-2-yl)methoxy)(phenoxy)phosphoryl)amino)propanoate]
[1]
  Alanine aminotransferase Grade 3: n: 0
  Hemoglobin Grade 3: n: 0
  INR Grade 3: n: 0
  Lymphocytes Grade 3: n: 0
  Lymphocytes Grade 4: %: 10%
  Lymphocytes Grade 4: n: 1
  Neutropenia Grade 3: n: 0
  Neutropenia Grade 4: n: 0
  White blood cells Grade 3: n: 0
[2]
  Fold Change: 3.5
[3]
  Fold Change: 6.1
[4]
  Fold Change: 14.35
[5]
  Fold Change: 2.4
[6]
  Fold Change: 8.8
HCV NS5B S282T
  S282T at relapse by deep sequencing: 99%
[7]
  EC50: 25.1 nM
[8]
  EC50: 9.91 nM
[9]
  Abdominl Pain: n: 0
  Alopecia: n: 0
  Anemia: n: 0
  Arthralgia: n: 0
  Axillary Pain: %: (20) %
  Axillary Pain: n: 2
  Back Pain: %: (10) %
  Back Pain: n: 1
  Blood and Lymphatic System Disorders: n: 0
  Chills: n: 0
  Decreased Appetite: n: 0
  Diarrhoea: n: 0
  Dizziness Postural: n: 0
  Dizziness: %: (20) %
  Dizziness: n: 2
  Dry Skin: n: 0
  Dyspnoea: n: 0
  Fatigue: %: (30) %
  Fatigue: n: 3
  Flatulence: n: 0
  Gastrointestinal Disorders: %: (80) %
  Gastrointestinal Disorders: n: 8
  General Disorders and Administration Site Conditions: %: (80) %
  General Disorders and Administration Site Conditions: n: 8
  Headache: %: (80) %
  Headache: n: 8
  Infections and Infestations: %: (50) %
  Infections and Infestations: n: 5
  Injection Site Erythema: n: 0
  Insomnia: %: (60) %
  Insomnia: n: 6
  Irritability: %: (10) %
  Irritability: n: 1
  Metabolism and Nutrition Disorders: n: 0
  Musculoskeletal and Connective Tissue Disorders: %: (20) %
  Musculoskeletal and Connective Tissue Disorders: n: 2
  Myalgia: %: (10) %
  Myalgia: n: 1
  Nausea: %: (30) %
  Nausea: n: 3
  Nervous System Disorders: %: (90) %
  Nervous System Disorders: n: 9
  Oropharyngeal Pain: %: (20) %
  Oropharyngeal Pain: n: 2
  Pain: n: 0
  Pruritus: n: 0
  Psychiatric Disorders: %: (60) %
  Psychiatric Disorders: n: 6
  Pyrexia: n: 0
  Rash: %: (10) %
  Rash: n: 1
  Respiratory, Thoracic and Mediastinal Disorders: %: (30) %
  Respiratory, Thoracic and Mediastinal Disorders: n: 3
  Skin and Subcutaneous Tissue Disorders: %: (30) %
  Skin and Subcutaneous Tissue Disorders: n: 3
  Upper Respiratory Tract Infection: %: (20) %
  Upper Respiratory Tract Infection: n: 2
  ≧1 AE: %: (100) %
  ≧1 AE: n: 10
[10]
  population mutant S282T: 92%
